Literature values as cited in publication PMC8448162, “Single- and Multiple-Ascending-Dose Study of the Safety, Tolerability, and Pharmacokinetics of the Polymyxin Derivative SPR206” (Antimicrobial Agents and Chemotherapy, 2021).

What was measured:
[1] = tested on: kidney; conditions: in vivo; cited from earlier work
[2] = tested on: bacterial burden in CFU/g; parameters: method as in earlier work; conditions: 20 mg/kg, infection models in mice; cited from earlier work
[3] = tested on: kidney; conditions: mouse model; cited from earlier work

Row | Substance | incidence of acute kidney injury [1] | change from baseline in Log10 (bacterial burden in CFU/g) [2] | histopathological changes in the kidney [3]
1 | colistin | up to 60% | – | –
2 | polymyxin B [reference compound] | – | −2.8 Log10 | all animals
